Test results reported in PubChem BioAssay AID651733 (The Scripps Research Institute Molecular Screening Center, 2012).
The source made the active and inactive calls. How the calls were made is not given here.

What follows are molecules tested against Perilipin-5 (Homo sapiens) + 1-acylglycerol-3-phosphate O-acyltransferase ABHD5 (Homo sapiens) (UniProt Q00G26+Q8WTS1) (assay: ABHD5-PLIN5 interaction inhibitors, dose response, cell lysate, luminescence, proteins expressed in HEK293T (AID 651733);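 further: split Gaussia princeps luciferase complementation between ABHD5 and MLDP fusion proteins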).
Chain of Perilipin-5 (Homo sapiens) + 1-acylglycerol-3-phosphate O-acyltransferase ABHD5 (Homo sapiens) (Q00G26 whole entry, looked up, the tested form may be a part): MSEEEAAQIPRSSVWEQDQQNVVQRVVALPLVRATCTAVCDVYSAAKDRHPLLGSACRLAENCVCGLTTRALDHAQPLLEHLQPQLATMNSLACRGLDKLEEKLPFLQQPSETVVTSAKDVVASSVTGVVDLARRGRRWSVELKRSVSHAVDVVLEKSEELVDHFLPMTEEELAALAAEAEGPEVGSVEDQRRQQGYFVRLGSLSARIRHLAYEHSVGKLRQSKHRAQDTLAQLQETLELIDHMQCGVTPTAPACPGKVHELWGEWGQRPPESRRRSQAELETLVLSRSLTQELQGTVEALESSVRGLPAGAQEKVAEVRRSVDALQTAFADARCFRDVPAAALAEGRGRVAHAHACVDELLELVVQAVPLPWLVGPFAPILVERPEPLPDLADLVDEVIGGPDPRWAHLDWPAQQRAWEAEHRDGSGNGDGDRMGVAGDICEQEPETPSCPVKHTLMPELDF
Chain of Perilipin-5 (Homo sapiens) + 1-acylglycerol-3-phosphate O-acyltransferase ABHD5 (Homo sapiens) (Q8WTS1 whole entry, looked up, the tested form may be a part): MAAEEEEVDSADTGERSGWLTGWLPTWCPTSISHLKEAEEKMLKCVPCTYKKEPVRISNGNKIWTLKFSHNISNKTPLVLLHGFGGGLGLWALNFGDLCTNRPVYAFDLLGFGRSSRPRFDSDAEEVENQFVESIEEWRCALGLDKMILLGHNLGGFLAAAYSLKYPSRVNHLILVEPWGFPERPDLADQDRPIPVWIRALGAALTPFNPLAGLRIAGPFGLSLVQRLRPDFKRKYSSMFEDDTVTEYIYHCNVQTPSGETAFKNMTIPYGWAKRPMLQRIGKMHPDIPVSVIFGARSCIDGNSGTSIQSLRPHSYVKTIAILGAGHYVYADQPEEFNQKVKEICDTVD
`CC(=O)C1=C(c2cccc([N+](=O)[O-])c2)N(C(C)=O)n2c(C)nnc2S1` showed an IC50 of 4.3 µM.
In the case of `CCCCCNC(=O)C(c1ccccc1F)n1c(=O)c(-c2ccco2)nc2ccccc21` (configuration not stated), the IC50 is reported as 2.39 µM.
Work on `Cc1ccc(CC2(OCCN(C)C)CCC(C(C)(C)C)CC2)cc1` (configuration not stated) yielded an IC50 of 4.85 µM.
For `CCOC(=O)c1c(NC(=O)/C=C/C(=O)O)sc(C)c1-c1ccc(C(C)(C)C)cc1`, the IC50 was 5.99 µM.
For `CC(=O)OCC1=C(C(=O)O)N2C(=O)C(NC(=O)CCn3nc(C(F)(F)F)c(Br)c3C3CC3)C2SC1` (configuration not stated), the IC50 was “inactive”.
`CC(C)(C)NC(=O)C(c1ccncc1)n1c(=O)c(-c2ccco2)nc2ccccc21` (configuration not stated) showed an IC50 of 4.21 µM.
With `CC(O)CC(=O)OC[C@]12CC[C@H]3[C@@](C)(CC[C@H]4C(C)(C)CCC[C@]34C)[C@@H]1CC(C1=CC(=O)OC1O)O2` (some centres not stated) the IC50 was 1.37 µM.
`Oc1ccc2sc(-c3ccccc3O)c(-c3ccc(OCCN4CCCCC4)cc3)c2c1` was tested, and the IC50 was “inactive”.
`O=C(COc1ccccc1Cl)Nc1ccc(N2CCCC2)cc1` was tested, and the IC50 was > 39.9 µM (inactive).
`Cc1ccc(NC(=O)CSc2nnc(-c3ccco3)c(-c3ccco3)n2)cc1` showed an IC50 of 4.82 µM.
With `CCCCCNC(=O)C(c1cccc2ccccc12)n1c(=O)c(-c2ccco2)nc2ccccc21` (configuration not stated) the IC50 was 4.25 µM.
In the case of `O=C(NC1CCCCC1)C(c1ccnc2ccccc12)n1c(=O)c(-c2ccco2)nc2ccccc21` (configuration not stated), the IC50 is reported as 4.42 µM.
`CC1=CC(C)(C)Nc2ccc(OC(=O)CN3C(=O)c4cccc5cccc(c45)C3=O)cc21` was tested, and the IC50 was “inactive”.
`CCCCC(=O)NC(c1cccc([N+](=O)[O-])c1)c1ccc2cccnc2c1O` (configuration not stated) was tested, and the IC50 was “inactive”.
With `COC(=O)c1ccc(Cn2cc(/C=C\[N+](=O)[O-])c3ccccc32)o1` the IC50 was “inactive”.
For `O=C(/C=C/c1ccc(NC(=O)c2ccccc2-c2ccccc2C(=O)O)cc1)c1ccccc1`, the IC50 was 8.25 µM.
In the case of `CC1=CC(C)(C)Nc2ccc(OC(=O)c3cccnc3)cc21`, the IC50 is reported as 3.25 µM.
`COc1ccc(OCc2cn(CC(=O)c3ccc(O)cc3)nn2)cc1` showed an IC50 of 5.67 µM.
For `CC(=O)Oc1c(Cl)cc(N(C(C)=O)S(=O)(=O)c2ccccc2)c2ccccc12`, the IC50 was 7.06 µM.
`CCC(c1nc2ccccc2[nH]1)n1c(=O)c(-c2ccco2)nc2ccccc21` (configuration not stated) showed an IC50 of 5.45 µM.
With `CN(C)CCCN(C(=O)CCc1ccccc1)c1nc2ccc(Br)cc2s1` the IC50 was “inactive”.
`O=C(NC1CCCCC1)C(c1ccc(C(F)(F)F)cc1)n1c(=O)c(-c2ccco2)nc2ccccc21` (configuration not stated) was tested, and the IC50 was 3.81 µM.
For `COc1ccc(C(C(=O)NC2CCCCC2)n2c(=O)c(-c3ccco3)nc3ccccc32)cc1` (configuration not stated), the IC50 was 3.87 µM.
`O=C(Nc1ccc2c(c1)OCCO2)C(c1ccnc2ccccc12)n1c(=O)c(-c2ccco2)nc2ccccc21` (configuration not stated) was tested, and the IC50 was “inactive”.
Work on `CN1[C@@H]2CC[C@H]1CC(OC1c3ccccc3CCc3ccccc31)C2` (some centres not stated) yielded an IC50 of 2.38 µM.
Work on `Cc1cc(C)c(NC(=O)C[N+](C)(C)CC(O)COc2cccc3ccccc23)c(C)c1` (configuration not stated) yielded an IC50 of 8.93 µM.
`CC(c1nc2ccccc2[nH]1)n1c(=O)c(-c2ccco2)nc2ccccc21` (configuration not stated) was tested, and the IC50 was 6.21 µM.
Molecule `CSc1nnc(NC(=O)c2nc(S(=O)(=O)Cc3ccc(C)cc3)ncc2Cl)s1` has an IC50 of 3.88 µM.
Work on `O=C(NCc1ccccc1)C(c1ccccc1F)n1c(=O)c(-c2ccco2)nc2ccccc21` (configuration not stated) yielded an IC50 of 4.43 µM.
`CN(C)CCCNC(=O)c1ccc(-c2nc(-c3ccc(Cl)cc3)cs2)cc1` was tested, and the IC50 was “inactive”.
In the case of `O=C(Nc1ccc2c(c1)OCCO2)C(c1ccccc1F)n1c(=O)c(-c2ccco2)nc2ccccc21` (configuration not stated), the IC50 is reported as “inactive”.
`O=C(Cn1c(=O)n(Cc2ccco2)c(=O)c2c3c(sc21)CCCC3)Nc1ccccc1` was tested, and the IC50 was “inactive”.
`Cc1cccc(C)c1NC(=O)C(c1ccnc2ccccc12)n1c(=O)c(-c2ccco2)nc2ccccc21` (configuration not stated) was tested, and the IC50 was 6.13 µM.
Molecule `O=c1c(-c2ccco2)nc2ccccc2n1C(CCc1ccccc1)c1nc2ccccc2[nH]1` (configuration not stated) has an IC50 of 5.14 µM.
Molecule `CC(C)(C)NC(=O)C(c1ccccc1)n1c(=O)c(-c2ccco2)nc2ccccc21` (configuration not stated) has an IC50 of 3.62 µM.
`CC(C)(C)NC(=O)C(c1cccc2ccccc12)n1c(=O)c(-c2ccco2)nc2ccccc21` (configuration not stated) gave an IC50 of 4.38 µM.
Molecule `CCN1CCN(Cc2ccc(NC(=O)c3ccc(C)c(/C=C/c4cnc(Nc5cc(N6CCNCC6)nc(C)n5)cn4)c3)cc2C(F)(F)F)CC1` has an IC50 of 6.01 µM.
Work on `COc1cc(/C=C/C(=O)c2ccc(Cl)s2)cc(OC)c1O` yielded an IC50 of 6.42 µM.
`CN(C)c1ccc(Cc2cc3c(O)ccc(O)c3cc(Cc3ccc(N(C)C)cc3)c2=O)cc1` was tested, and the IC50 was 4.13 µM.
In the case of `CCCC(=O)NC(c1cccc([N+](=O)[O-])c1)c1ccc2cccnc2c1O` (configuration not stated), the IC50 is reported as “inactive”.
`C#CCN(C[C@@H]1[C@@H](OC(=O)NC2CCCC2)[C@@H](OC(=O)NC2CCCC2)Cn2c(=O)ccc(=O)n21)S(=O)(=O)c1ccc(C)cc1` gave an IC50 of 7.83 µM.
For `C=C[C@]1(C)C[C@@H](OC(=O)CSCCN(CC)CC)[C@]2(C)C(C)CC[C@]3(CCC(=O)[C@H]32)[C@@H](C)[C@@H]1O` (some centres not stated), the IC50 was 4.62 µM.
Molecule `CC(=O)Oc1c(Cl)c(N2CCOCC2)c(OC(C)=O)c2ccccc12` has an IC50 of 8.04 µM.
For `CC1=CC2C(C(O)CC3(C)C2CC(C)C32OCOC23COCO3)C2(C)C/C(=C\O)C(=O)C=C12` (configuration not stated), the IC50 was 3.6 µM.
`C#CCN(C[C@@H]1[C@@H](OC(=O)NCCCCCC)[C@@H](OC(=O)NCCCCCC)Cn2c(=O)ccc(=O)n21)S(=O)(=O)c1ccc(C)cc1` was tested, and the IC50 was 6.47 µM.
`CCCCCNC(=O)C(c1ccc(OC)cc1)n1c(=O)c(-c2ccco2)nc2ccccc21` (configuration not stated) showed an IC50 of 3.4 µM.
In the case of `CC(=O)Nc1ccc(OCc2cn(CC(=O)c3ccc(O)cc3)nn2)cc1`, the IC50 is reported as 3.76 µM.
Work on `Cc1cccc(C)c1OCc1cn(CC(=O)c2ccc(O)cc2)nn1` yielded an IC50 of 5.07 µM.
In the case of `Cc1ccc2sc(N(CCCN(C)C)C(=O)CN3C(=O)c4ccccc4C3=O)nc2c1C`, the IC50 is reported as “inactive”.
For `CCSc1ccc2c(c1)N(CCCN1CCN(C)CC1)c1ccccc1S2`, the IC50 was 5.95 µM.
`CC(=O)Cc1cc(O)c2ccccc2c1OC(=O)c1ccccc1` showed an IC50 of 5.35 µM.
In the case of `CCN(CC)CCOCCOC(=O)C1(c2ccccc2)CCCC1`, the IC50 is reported as 2.17 µM.
In the case of `O=C(NC1CCCCC1)C(c1cccc2ccccc12)n1c(=O)c(-c2ccco2)nc2ccccc21` (configuration not stated), the IC50 is reported as 2.33 µM.
For `CC1=CC(C)(C)Nc2ccc(OC(=O)CN3C(=O)C4CCCCC4C3=O)cc21` (configuration not stated), the IC50 was 4 µM.
`O=c1[nH]c(C2CCN(S(=O)(=O)c3ccc(S(=O)(=O)NC4CC4)cc3)CC2)nc2c1nnn2Cc1ccc(F)cc1` gave an IC50 of 2.39 µM.
`CC(C)c1ccc(N2C=Nc3ccc(C(C)C)cc3C2)cc1` was tested, and the IC50 was 7.82 µM.
`CCN1/C(=C/C=C/c2oc3ccc(-c4ccccc4)cc3[n+]2CC)Oc2ccc(-c3ccccc3)cc21` gave an IC50 of 1.12 µM.
In the case of `Cc1cccc(C)c1NC(=O)C(c1ccc(C(F)(F)F)cc1)n1c(=O)c(-c2ccco2)nc2ccccc21` (configuration not stated), the IC50 is reported as 3.73 µM.
`CC1CCN(S(=O)(=O)c2ccc(NC(=O)Cc3cccs3)cc2)CC1` showed an IC50 of 8.04 µM.
For `COc1ccc(C(C(=O)Nc2ccc3c(c2)OCCO3)n2c(=O)c(-c3ccco3)nc3ccccc32)cc1` (configuration not stated), the IC50 was 8.54 µM.
In the case of `CN(C)CCCN(C(=O)CCc1ccccc1)c1nc2ccc(Cl)cc2s1`, the IC50 is reported as “inactive”.
For `O=C(NC1CCCCC1)C(C1CC1)n1c(=O)c(-c2ccco2)nc2ccccc21` (configuration not stated), the IC50 was 5.09 µM.
In the case of `C#CCN(C[C@@H]1[C@@H](OC(=O)Nc2cccs2)[C@@H](OC(=O)Nc2cccs2)Cn2c(=O)ccc(=O)n21)S(=O)(=O)c1ccc(C)cc1`, the IC50 is reported as 3.06 µM.
Work on `CCOC1=CC2=C(C(=O)C(Cl)=CC2=O)[C@@H]2CN(S(=O)(=O)c3ccc(C)cc3)[C@@H](c3ccccc3)[C@H]12` yielded an IC50 of 2.25 µM.
Work on `O=C1CC(c2ccc(Cl)cc2)Oc2ccc(Cl)cc21` (configuration not stated) yielded an IC50 of 3.18 µM.
For `CC1CN(Cc2c(O)ccc3c2oc(=O)c2ccccc23)CC(C)O1` (configuration not stated), the IC50 was 4.77 µM.
`CCOC(=O)N1CCN(C(=O)C[C@@H]2C[C@@]3(C(=O)OCC)CCC=C3N(Cc3ccc(Cl)cc3Cl)C2=O)CC1` showed an IC50 of 7.45 µM.
